# In ChEMBL document CHEMBL5614413, “Design, synthesis and biological evaluation of amphiphilic benzopyran derivatives as potent antibacterial agents against multidrug-resistant bacteria” (Eur J Med Chem, 2024):
# How the values were obtained:
# [1] = system: Pseudomonas aeruginosa; assay: Antibacterial activity against penicillin-susceptible Pseudomonas aeruginosa ATCC 27853; type: functional
# [2] = system: Klebsiella pneumoniae; assay: Antibacterial activity against Klebsiella pneumoniae ATCC 10031; type: functional
# [3] = system: Acinetobacter baumannii; assay: Antibacterial activity against Acinetobacter baumannii ATCC 19606; type: functional
# [4] = system: Bacillus subtilis; assay: Antibacterial activity against penicillin-susceptible Bacillus subtilis ATCC 9372; type: functional
# [5] = system: Staphylococcus aureus; assay: Antibacterial activity against penicillin-resistant Staphylococcus aureus ATCC 31007; type: functional
# [6] = Selectivity index, ratio of HC50 for hemolytic activity in sheep RBC to MIC for antibacterial activity against methicillin-resistant Staphylococcus aureus ATCC 43300; type: toxicity; conditions: sheep red blood cells (erythrocytes), read-out: Selectivity Index
# [7] = system: Staphylococcus epidermidis; assay: Antibacterial activity erythromycin-susceptible Staphylococcus epidermidis ATCC 12228; type: functional
# [8] = Hemolytic activity in sheep RBC; type: toxicity, cell-based, Ovis aries, Erythrocyte; conditions: sheep red blood cells (erythrocytes)
# [9] = system: Staphylococcus aureus; assay: Antibacterial activity against methicillin-resistant Staphylococcus aureus ATCC 43300; type: functional
# [10] = system: Staphylococcus aureus; assay: Antibacterial activity against erythromycin-susceptible Staphylococcus aureus ATCC 25923; type: functional
# [11] = system: Escherichia coli; assay: Antibacterial activity against penicillin-susceptible Escherichia coli ATCC 25922; type: functional
# [12] = system: Enterococcus faecalis; assay: Antibacterial activity against vancomycin-susceptible Enterococcus faecalis ATCC 29212; type: functional
compound,measurement,setting,value
CC(=O)c1c(OCCCNCCCN2CCOCC2)c2c(c3c1OC(C)(CCC=C(C)C)C=C3)OC(C)(CCC=C(C)C)C=C2 (configuration not stated),MIC,[1],> 128 µg/mL
same,MIC,[2],128 µg/mL
same,MIC,[3],128 µg/mL
same,MIC,[4],4 µg/mL
same,MIC,[5],4 µg/mL
same,selectivity ratio,[6],4.5
same,MIC,[7],4 µg/mL
same,HC50,[8],18.1 µg/mL
same,MIC,[9],4 µg/mL
same,MIC,[10],4 µg/mL
same,MIC,[11],> 128 µg/mL
same,MIC,[12],8 µg/mL
COc1c(C(=O)/C=C/c2ccc(OCCCN(C)CCCN(C)C)cc2)ccc2c1C=CC(C)(CCC=C(C)C)O2 (configuration not stated),MIC,[1],> 128 µg/mL
same,MIC,[2],4 µg/mL
same,MIC,[3],8 µg/mL
same,MIC,[4],4 µg/mL
same,MIC,[5],4 µg/mL
same,selectivity ratio,[6],29.8
same,MIC,[7],1 µg/mL
same,HC50,[8],119 µg/mL
same,MIC,[9],4 µg/mL
same,MIC,[10],4 µg/mL
same,MIC,[11],2 µg/mL
same,MIC,[12],2 µg/mL
CC(=O)c1ccc2c(c1OCC(=O)NCCN(C)C)C=CC(C)(CCC=C(C)C)O2 (configuration not stated),MIC,[1],128 µg/mL
same,MIC,[2],32 µg/mL
same,MIC,[3],64 µg/mL
same,MIC,[4],64 µg/mL
same,MIC,[5],128 µg/mL
same,selectivity ratio,[6],4.9
same,MIC,[7],64 µg/mL
same,HC50,[8],316 µg/mL
same,MIC,[9],128 µg/mL
same,MIC,[10],64 µg/mL
same,MIC,[11],128 µg/mL
same,MIC,[12],64 µg/mL
CC(=O)c1ccc2c(c1OCCCNCCCN1CCN(C)CC1)C=CC(C)(CCC=C(C)C)O2 (configuration not stated),MIC,[1],32 µg/mL
same,MIC,[2],16 µg/mL
same,MIC,[3],16 µg/mL
same,MIC,[4],16 µg/mL
same,MIC,[5],16 µg/mL
same,selectivity ratio,[6],10.5
same,MIC,[7],8 µg/mL
same,HC50,[8],168 µg/mL
same,MIC,[9],16 µg/mL
same,MIC,[10],16 µg/mL
same,MIC,[11],16 µg/mL
same,MIC,[12],16 µg/mL
CC(=O)c1ccc2c(c1OCC(=O)NCCCN1CCCC1)C=CC(C)(CCC=C(C)C)O2 (configuration not stated),MIC,[1],> 128 µg/mL
same,MIC,[2],64 µg/mL
same,MIC,[3],128 µg/mL
same,MIC,[4],64 µg/mL
same,MIC,[5],32 µg/mL
same,selectivity ratio,[6],5.2
same,MIC,[7],64 µg/mL
same,HC50,[8],167 µg/mL
same,MIC,[9],32 µg/mL
same,MIC,[10],32 µg/mL
same,MIC,[11],> 128 µg/mL
same,MIC,[12],64 µg/mL
CCNCCCOc1ccc(/C=C/C(=O)c2ccc3c(c2OC)C=CC(C)(CCC=C(C)C)O3)cc1 (configuration not stated),MIC,[1],> 128 µg/mL
same,MIC,[2],32 µg/mL
same,MIC,[3],> 128 µg/mL
same,MIC,[4],8 µg/mL
same,MIC,[5],8 µg/mL
same,selectivity ratio,[6],7.5
same,MIC,[7],1 µg/mL
same,HC50,[8],59.9 µg/mL
same,MIC,[9],8 µg/mL
same,MIC,[10],8 µg/mL
same,MIC,[11],> 128 µg/mL
same,MIC,[12],4 µg/mL
